{"source": "patent US6902748B1", "about": "“Medicines manufactured from old platycodon extracts” (Jang Saeng Doraji Co., Ltd, priority 1999, dated 2005)", "tested_on": "edema of both feet of SD-rats", "test": "Edema suppression in rheumatic arthritis model (heat-killed Mycobacterium injected into right sole)", "type": "in vivo", "settings": "4 mg/day; about 20 days after injection", "experimental": "At about 20 days after injection of 0.6 mg/kg heat-killed 5. Mycobacterium histolyticm to the right sole of the feet of SD-rats, the degree of inhibition against inflammation was investigated by measuring the size of edema of both feet. The rats were divided into 7 groups and examined; feed group (group A) as a control group, not being caused edema, group B which was fed with 4 mg/day of predisolone as edema suppression agents, group C which was fed with 160 mg/day of ordinary platycodon extract, group D which was fed with 20 mg/day of 14 kinds of herbal medicine extract, group E which was fed with 160 mg/day of the old platycodon extract, group F which was fed with 40 mg/day of herbal medicine extract and 160 mg/day of the old platycodon extract. Each group was assigned to have 6 SD-rats."}
{"smiles": "C[C@]12C=CC(=O)C=C1CC[C@@H]1[C@@H]2[C@@H](O)C[C@@]2(C)[C@H]1CC[C@]2(O)C(=O)CO", "note": "[predisolone]", "values": [{"measurement": "Edema suppression activity in the left foot", "result": 83.8, "unit": "%"}, {"measurement": "Edema suppression activity in the right foot", "result": 84.5, "unit": "%"}]}
